Each block holds one compound with its values, some of them ahead of it.
Assay: Henry solubility constant Hcp at 298.15 K (mol/(m3 Pa))
[1] = reference: Butler et al. (1935)
[2] = reference: McFall et al. (2020)
[3] = reference: Shunthirasingham et al. (2013)
[4] = reference: Souchon et al. (2004)
[5] = reference: Dohányosová et al. (2004)
[6] = reference: Dohnal and Fenclová (1995)
[7] = reference: Feigenbrugel et al. (2004b)
[8] = reference: Murphy et al. (1983a)
[9] = reference: Wen and Muccitelli (1979)
[10] = reference: Charles and Destaillats (2005)
[11] = reference: Hovorka et al. (2019)
[12] = reference: Rochester and Symonds (1973)
[13] = reference: Schuhfried et al. (2011)
[14] = reference: Christie and Crisp (1967)
[15] = reference: Brockbank et al. (2013)

SMILES: CCO [ethanol]
Henry solubility constant Hcp (reference: Burnett (1963)): 2.1
Henry solubility constant Hcp [1]: 1.9
Henry solubility constant Hcp (reference: Gupta et al. (2000)): 1.8
Henry solubility constant Hcp (reference: Harger et al. (1950)): 1.9
Henry solubility constant Hcp (reference: Jones (1983)): 1.9
Henry solubility constant Hcp (reference: Park et al. (1987)): 1.9
Henry solubility constant Hcp (reference: Pividal et al. (1992)): 3.1
Henry solubility constant Hcp (reference: Richon et al. (1985)): 2
Henry solubility constant Hcp (reference: Rohrschneider (1973)): 2.3
Henry solubility constant Hcp (reference: Snider and Dawson (1985)): 1.9
Henry solubility constant Hcp (reference: Straver and de Loos (2005)): 1.9
Henry solubility constant Hcp (reference: Ueberfeld et al. (2001)): 1.1
Henry solubility constant Hcp (reference: Vitenberg and Dobryakov (2008)): 1.8
Henry solubility constant Hcp (reference: Willey et al. (2017)): 1.8

SMILES: NCCCCCCN [1,6-hexanediamine]
Henry solubility constant Hcp (reference: Nguyen (2013)): 1000

SMILES: CCS [ethanethiol]
Henry solubility constant Hcp (reference: Jou et al. (2021)): 0.0024
Henry solubility constant Hcp (reference: Vitenberg et al. (1975)): 0.0022

SMILES: C=CCC [1-butene]
Henry solubility constant Hcp (reference: Serra and Palavra (2003)): 4.5e-05

SMILES: O=C(O)C(Br)(Br)Br [tribromoethanoic acid]
Henry solubility constant Hcp (reference: Bowden et al. (1998a)): 2900

SMILES: O=C(O)c1ccccc1 [benzenecarboxylic acid]
Henry solubility constant Hcp (reference: Li et al. (2007)): 290

SMILES: NCl [chloramine]
Henry solubility constant Hcp (reference: Holzwarth et al. (1984)): 0.92

SMILES: COC(=O)C(C)O (stereo not given) [methyl 2-hydroxypropanoate]
Henry solubility constant Hcp (reference: Sanz and Gmehling (2005)): 9.1

SMILES: O=C(O)C(F)(F)C(F)(F)C(F)(F)C(F)(F)C(F)(F)C(F)(F)C(F)(F)F [pentadecafluorooctanoic acid]
Henry solubility constant Hcp (reference: Kutsuna and Hori (2008b)): 0.049
Henry solubility constant Hcp (reference: Kwan (2001)): 2.8
Henry solubility constant Hcp (reference: Li et al. (2007)): 0.4

SMILES: Clc1ccc(Cl)c(-c2cc(Cl)ccc2Cl)c1 [2,2',5,5'-tetrachlorobiphenyl]
Henry solubility constant Hcp [8]: 0.045

SMILES: CCC[N+](=O)[O-] [1-nitropropane]
Henry solubility constant Hcp (reference: Beneš and Dohnal (1999)): 0.13

SMILES: CCCC(C)O[N+](=O)[O-] (stereo not given) [2-pentyl nitrate]
Henry solubility constant Hcp (reference: Hauff et al. (1998)): 0.0037

SMILES: NCCOCCO [diglycolamine]
Henry solubility constant Hcp (reference: Nguyen (2013)): 6100

SMILES: FC1(F)C(F)(F)C(F)(F)C1(F)F [octafluorocyclobutane]
Henry solubility constant Hcp (reference: Park et al. (1982)): 1.2e-06
Henry solubility constant Hcp (reference: Scharlin and Battino (1994)): 1.3e-06
Henry solubility constant Hcp [9]: 1.2e-06

SMILES: Clc1ccccc1-c1ccccc1 [2-chlorobiphenyl]
Henry solubility constant Hcp [10]: 0.03

SMILES: C[C@@H]1CCCC[C@@H]1C [cis-1,2-dimethylcyclohexane]
Henry solubility constant Hcp [5]: 2.7e-05

SMILES: CC(F)F [1,1-difluoroethane]
Henry solubility constant Hcp (reference: Maaßen (1995)): 0.0005
Henry solubility constant Hcp (reference: Reichl (1995)): 0.00049
Henry solubility constant Hcp (reference: Zheng et al. (1997)): 0.00049

SMILES: CCOCc1ccc(O)c(OC)c1 [vanillyl ethyl ether]
Henry solubility constant Hcp [2]: 410

SMILES: CC(=O)C(C)(C)C [3,3-dimethyl-2-butanone]
Henry solubility constant Hcp [11]: 0.043

SMILES: CC(Cc1ccc(C(C)(C)C)cc1)CN1CCCCC1 (stereo not given) [fenpropidin]
Henry solubility constant Hcp (reference: Feigenbrugel and Le Calvé (2021)): 710

SMILES: COc1cc(CCC(C)=O)cc(OC)c1O [syringylacetone]
Henry solubility constant Hcp [2]: 1.2e+06

SMILES: FC(Cl)C(F)(F)F (stereo not given) [1-chloro-1,2,2,2-tetrafluoroethane]
Henry solubility constant Hcp (reference: Kutsuna (2013)): 0.00011
Henry solubility constant Hcp (reference: Maaßen (1995)): 0.0001
Henry solubility constant Hcp (reference: Reichl (1995)): 0.00011

SMILES: ClC1=C(Cl)C2(Cl)C3C(Cl)C=CC3C1(Cl)C2(Cl)Cl (stereo not given) [heptachlor]
Henry solubility constant Hcp (reference: Warner et al. (1980)): 0.0067

SMILES: CF [fluoromethane]
Henry solubility constant Hcp (reference: Glew and Moelwyn-Hughes (1953)): 0.00058
Henry solubility constant Hcp (reference: Swain and Thornton (1962)): 0.00058

SMILES: [O][N+](=O)[O-] [nitrogen trioxide]
Henry solubility constant Hcp (reference: Thomas et al. (1998)): 0.018

SMILES: [Hg] [mercury]
Henry solubility constant Hcp (reference: Andersson et al. (2008)): 0.0013
Henry solubility constant Hcp (reference: Sanemasa (1975)): 0.0013

SMILES: CC(C)S [2-propanethiol]
Henry solubility constant Hcp (reference: Haimi et al. (2006)): 0.0013
Henry solubility constant Hcp (reference: Zin et al. (2016)): 0.0016

SMILES: C=CCN=C=S [allyl isothiocyanate]
Henry solubility constant Hcp [4]: 0.021

SMILES: OC(C(F)(F)F)C(F)(F)F [1,1,1,3,3,3-hexafluoro-2-propanol]
Henry solubility constant Hcp [12]: 0.24

SMILES: CCSC [ethyl methyl sulfide]
Henry solubility constant Hcp [13]: 0.0042

SMILES: COC(=O)C(F)(F)F [trifluoroethanoic acid, methyl ester]
Henry solubility constant Hcp (reference: Kutsuna et al. (2004)): 0.0012

SMILES: CN [methanamine]
Henry solubility constant Hcp [14]: 0.89

SMILES: OCC(F)(F)F [2,2,2-trifluoroethanol]
Henry solubility constant Hcp (reference: Chen et al. (2003)): 0.47
Henry solubility constant Hcp [12]: 0.58

SMILES: Clc1ccc(-c2cc(Cl)c(Cl)c(Cl)c2Cl)cc1Cl [2,3,3',4,4',5-hexachlorobiphenyl]
Henry solubility constant Hcp [8]: 0.011

SMILES: Clc1cccc(Cl)c1Cl [1,2,3-trichlorobenzene]
Henry solubility constant Hcp [15]: 0.0063

SMILES: Clc1cc(-c2ccc(Cl)c(Cl)c2Cl)cc(Cl)c1Cl [2,3,3',4,4',5'-hexachlorobiphenyl]
Henry solubility constant Hcp [8]: 0.017

SMILES: CCCCNCCCC [dibutylamine]
Henry solubility constant Hcp [14]: 0.11

SMILES: C=CCSCC=C [3,3'-thiobis-1-propene]
Henry solubility constant Hcp (reference: Lindinger et al. (1998)): 0.0041

SMILES: [O][Cl+][O-] [chlorine dioxide]
Henry solubility constant Hcp (reference: Bigorgne (1947)): 0.0066
Henry solubility constant Hcp (reference: Holst (1944)): 0.0097
Henry solubility constant Hcp (reference: Ishi (1958)): 0.011
Henry solubility constant Hcp (reference: Kepinski and Trzeszczynski (1964)): 0.01
Henry solubility constant Hcp (reference: Taube and Dodgen (1949)): 0.01

SMILES: FC(F)(F)C(F)(F)F [hexafluoroethane]
Henry solubility constant Hcp (reference: Bonifácio et al. (2001)): 6.5e-07
Henry solubility constant Hcp (reference: Park et al. (1982)): 5.3e-07
Henry solubility constant Hcp [9]: 5.6e-07

The next lines start with the values.

Henry solubility constant Hcp [2]: 4.3
SMILES: CCCc1ccc(O)c(OC)c1 [4-propylguaiacol]

Henry solubility constant Hcp (reference: Gupta et al. (2000)): 0.39
Henry solubility constant Hcp (reference: Lei et al. (2007)): 0.51
Henry solubility constant Hcp [3]: 0.57
Henry solubility constant Hcp [4]: 0.38
SMILES: CCCCCCO [1-hexanol]

Henry solubility constant Hcp (reference: Chaintreau et al. (1995)): 0.42
SMILES: Cc1cccnc1 [3-methylpyridine]

Henry solubility constant Hcp [5]: 1.6e-05
SMILES: C[C@@H]1CCCC[C@H]1C (relative stereo) [trans-1,2-dimethylcyclohexane]

Henry solubility constant Hcp [6]: 12
Henry solubility constant Hcp [7]: 7.9
SMILES: Cc1cccc(O)c1 [1-hydroxy-3-methylbenzene]

Henry solubility constant Hcp [1]: 0.78
Henry solubility constant Hcp (reference: Gupta et al. (2000)): 0.95
Henry solubility constant Hcp (reference: Lei et al. (2007)): 0.75
Henry solubility constant Hcp [3]: 0.81
SMILES: CCCCCO [1-pentanol]

Henry solubility constant Hcp [6]: 13
Henry solubility constant Hcp [7]: 10
Henry solubility constant Hcp (reference: Parsons et al. (1972)): 13
SMILES: Cc1ccc(O)cc1 [1-hydroxy-4-methylbenzene]

Henry solubility constant Hcp (reference: Haimi et al. (2006)): 0.0041
SMILES: c1ccsc1 [thiophene]

Henry solubility constant Hcp (reference: Nguyen (2013)): 1300
SMILES: CC(N)CO (stereo not given) [2-amino-1-propanol]

Henry solubility constant Hcp (reference: Kim and Kim (2016)): 15
SMILES: CCCCCCC(=O)O [heptanoic acid]

Henry solubility constant Hcp (reference: Buttery et al. (1965)): 0.071
SMILES: CCCCCCCCC=O [nonanal]

Henry solubility constant Hcp (reference: Ömür-Özbek and Dietrich (2005)): 0.082
SMILES: CCC=CCCC=CC=O [trans-2,cis-6-nonadienal]

Henry solubility constant Hcp [10]: 0.88
SMILES: Brc1ccc(Oc2cc(Br)c(Br)c(Br)c2Br)cc1 [2,3,4,4',5-pentabromodiphenyl ether]

Henry solubility constant Hcp (reference: Aprea et al. (2007)): 0.011
SMILES: CCCCCCCC(=O)OCC [ethyl octanoate]

Henry solubility constant Hcp (reference: Schuhfried et al. (2015)): 0.00034
SMILES: CC1=CC[C@H](C(C)C)C=C1 [(R)-(−)-α-phellandrene]

Henry solubility constant Hcp (reference: Clarke et al. (1962)): 0.00016
SMILES: CC(C)(C)Cl [2-chloro-2-methylpropane]

Henry solubility constant Hcp [11]: 0.076
SMILES: CCCC(=O)CC [3-hexanone]

Henry solubility constant Hcp (reference: Buttery et al. (1971)): 0.67
SMILES: CCc1nccnc1OC [2-ethyl-3-methoxypyrazine]

Henry solubility constant Hcp [13]: 0.0024
SMILES: CCCSSCCC [dipropyl disulfide]

Henry solubility constant Hcp (reference: Xu and Kropscott (2014)): 1.4e-07
SMILES: C[Si](C)(C)O[Si](C)(C)O[Si](C)(C)O[Si](C)(C)C [decamethyltetrasiloxane]

Henry solubility constant Hcp (reference: Zin et al. (2016)): 0.001
SMILES: CC(C)CS [2-methyl-1-propanethiol]

Henry solubility constant Hcp [15]: 0.0034
SMILES: Cc1ccc(Br)cc1 [1-bromo-4-methylbenzene]

Henry solubility constant Hcp (reference: Lei et al. (2007)): 0.065
Henry solubility constant Hcp [3]: 0.076
SMILES: CCCCCCCCCCO [1-decanol]

From Sander's compilation of Henry's law constants
